Reference: patent publication US6716845B2, “Barbituric acid derivatives” (Hoffmann-La Roche Inc., priority 2001, dated 2004)
Where two headings read alike, the source gives them in different places.

How the values were obtained:
MMP-8, catalytic domain = biological target: T1, MMP-8, catalytic domain (Homo sapiens, UniProt P22894); assay: Inhibition of MMP-8 catalytic domain, fluorogenic DNP-heptapeptide substrate cleavage; format: biochemical
T1 construct: Enzyme: 8 nM catalytic domain (Met80-Gly242) of human neutrophil collagenase (MMP-8); made in house
T1 sequence (P22894 100-262 limits assumed): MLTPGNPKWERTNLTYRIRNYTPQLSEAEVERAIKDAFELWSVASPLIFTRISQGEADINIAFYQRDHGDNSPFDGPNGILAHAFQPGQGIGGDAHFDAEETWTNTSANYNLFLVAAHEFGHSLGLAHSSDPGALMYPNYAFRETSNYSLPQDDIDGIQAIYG
Procedure: The results are evaluated by plotting the reciprocal reaction rate against the concentration of the inhibitor.
The synthetic collagenase substrate is a heptapeptide which is coupled, at the C terminus, with DNP (dinitrophenol). Said DNP residue quenches by steric hindrance the fluorescence of the adjacent tryptophane of the heptapeptide. After cleavage of a tripeptide which includes the DNP group, the tryptophane fluorescence increases. The proteolytic cleavage of the substrate therefore can be measured by the fluorescence value.
The assay was performed at 25° C. in a freshly prepared 50 mM Tris buffer (pH 8.0) treated with dithiozone to remove traces of heavy metals. 4 mM CaCl2 was added and the buffer saturated with argon. Stock solutions of adamalysin II were prepared by centrifugation of the protein from an ammonium sulfate suspension and subsequent dissolution in the assay buffer. Stock solutions of collagenase were diluted with the assay buffer. Enzyme concentrations were determined by uv measurements (ε280=2.8 10^4 M^−1 cm^−1, ε288: 2.2 10^4 M^−1·cm^−1) and the stock solutions were stored in the cold. […] Substrate fluorescence was measured at an excitation and emission wavelength of λ=320 and 420 nm, respectively, on a spectrofluorimeter (Perkin Elmer, Model 650-40) equipped with a thermostated cell holder. Substrate hydrolysis was monitored for 10 min. immediately after adding the enzyme. All reactions were performed at least in triplicate. The Ki values-of the inhibitors were calculated from the intersection point of the straight lines obtained by the plots of vo/vi vs. [concentration of inhibitor], whereas IC50 values were calculated from plots of vi/vo [concentration of inhibitor] by non-linear regression with simple robust weighting.
50 mM Tris/HCI pH 7.6 (Tris=Tris-(hydroxymethyl)-aminomethane)
100 mM NaCl/10 mM CaCl2/5% MeOH (if necessary)
Enzyme: 8 nM catalytic domain (Met80-Gly242) of human neutrophil collagenase (MMP-8)
Substrate: 10 microM DNP-Pro-Leu-Gly-Leu-Trp-Ala-D-Arg-NH2
A solution of the enzyme and inhibitor in assay buffer (25° C.) was prepared. The reaction was started by giving the substrate into the solution. The cleavage of the fluorogenic substrate was followed by fluorescence spectroscopy with an excitation and emission wavelength of 280 and 350 nm, respectively. The IC50 value was calculated as the inhibitor concentration, which is necessary to decrease the velocity of the reaction to the half in comparison to the reaction without inhibitor.

[1] = catalytic domain of human neutrophil collagenase (MMP-8), substrate DNP-Pro-Leu-Gly-Leu-Trp-Ala-D-Arg-NH2, 25° C., read-out: IC50 Values of MMP-Inhibitor (vs. MMP-8, catalytic domain)

SMILES: O=C1NC(=O)C(c2ccc(Oc3ccc(Cl)cc3)cc2)(N2CCN(CC(O)CO)CC2)C(=O)N1 (stereo not shown) [Example 1, 5-[4-(4-Chloro-phenoxy)-phenyl]-5-[4-(2,3-dihydroxy-propyl)-piperazin-1-yl]-pyrimidine-2,4,6-trione]
- IC50 (MMP-8, catalytic domain; [1]): 0.011 µM

SMILES: O=C1NC(=O)C(c2ccc(Oc3ccc(Cl)cc3)cc2)(N2CCN(CCOCCO)CC2)C(=O)N1 [Example 2 - no. 1]
- IC50 (MMP-8, catalytic domain; [1]): 0.016 µM

SMILES: O=C1NC(=O)C(c2ccc(Oc3ccc(Cl)cc3)cc2)(N2CCN(CC3COC(=O)O3)CC2)C(=O)N1 (stereo not shown) [Example 2 - no. 2, 5-[4-(4-Chloro-phenoxy)-phenyl]-5-[4-(2-oxo-[1,3]dioxolan-4-ylmethyl)-piperazin-1-yl]-pyrimidine-2,4,6-trione]
- IC50 (MMP-8, catalytic domain; [1]): 0.009 µM

SMILES: CCOCC(O)CN1CCN(C2(c3ccc(Oc4ccc(Cl)cc4)cc3)C(=O)NC(=O)NC2=O)CC1 (stereo not shown) [Example 2 - no. 3, 5-[4-(4-Chloro-phenoxy)-phenyl]-5-[4-(3-ethoxy-2-hydroxy-propyl)-piperazin-1-yl]-pyrimidine-2,4,6-trione]
- IC50 (MMP-8, catalytic domain; [1]): 0.015 µM

SMILES: O=C1NC(=O)C(c2ccc(Oc3ccc(Cl)c(Cl)c3)cc2)(N2CCN(CCOCCO)CC2)C(=O)N1 [Example 2 - no. 4, 5-[4-(3,4-Dichloro-phenoxy)-phenyl]-5-4-[2-(2-hydroxy-ethoxy)-ethyl]-piperazin-1-yl-pyrimidine-2,4,6-trione]
- IC50 (MMP-8, catalytic domain; [1]): 0.007 µM

SMILES: O=C1NC(=O)C(c2ccc(Sc3ccccc3)cc2)(N2CCN(CCOCCO)CC2)C(=O)N1 [Example 2 - no. 5, 5-4-[2-(2-Hydroxy-ethoxy)-ethyl]-piperazin-1-yl-5-(4-phenylsulfanyl-phenyl)-pyrimidine-2,4,6-trione]
- IC50 (MMP-8, catalytic domain; [1]): 0.019 µM

SMILES: O=C1NC(=O)C(NCCN2CCN(c3ncccn3)CC2)(c2ccc(Oc3ccc(Br)cc3)cc2)C(=O)N1 [Example 2 - no. 10, 5-[4-(4-Bromo-phenoxy)-phenyl]-5-[2-(4-pyrimidin-2-yl-piperazin-1-yl)-ethylamino]-pyrimidine-2,4,6-trione]
- IC50 (MMP-8, catalytic domain): 0.009 µM

SMILES: NS(=O)(=O)c1ccc(CN2CCN(C3(c4ccc(Oc5ccc(Br)cc5)cc4)C(=O)NC(=O)NC3=O)CC2)cc1 [Example 2 - no. 11, 4-(4-5-[4-(4-Bromo-phenoxy)-phenyl]-2,4,6-trioxo-hexahydro-pyrimidin-5-yl-piperazin-1-ylmethyl)-benzenesulfonamide]
- IC50 (MMP-8, catalytic domain; [1]): 0.011 µM

SMILES: O=C(O)CCC(=O)N1CCN(C2(c3ccc(Oc4ccccc4)cc3)C(=O)NC(=O)NC2=O)CC1 [Example 3, 4-Oxo-4-4-[2,4,6-trioxo-5-(4-phenoxy-phenyl)-hexahydro-pyrimidin-5-yl]-piperazin-1-yl-butyric acid]
- melting point: 270 to 275 °C
- IC50 (MMP-8, catalytic domain; [1]): 0.011 µM
